Results reported in US20240228500A1, “THERAPEUTIC CONJUGATES” (TOTUS MEDICINES INC., priority 2021, published 2024).

System: NanoLuc fused to the biological target
Assay: NanoBRET binding assay of ARCS in transfected HEK293 cells with washout
Design: species or system human
Conditions: HEK293 cells transiently transfected with NanoLuc fusion DNA, compound incubated overnight, cells washed 5x in PBS, tracer added
Method: Human embryonic kidney 293-H (HEK 293, Gibco 293-H, #11631017) cell lines were maintained in Dulbecco's Modified Eagle Medium, high glucose, pyruvate (DMEM, Gibco, #11995065) supplemented with 10% fetal bovine serum (FBS, Gibco, #10082147) and 1× penicillin-streptomycin (100× solution, Gibco, #15140148) at 37° C. and 5% CO2 in a water-saturated incubator. Cells were trypsinized using 0.05% or 0.25% Trypsin-EDTA solution (Trypsin-EDTA, phenol red, Gibco, #25200056 (0.25%) or #25300054). Opti-MEM media supplemented with 10% fetal bovine serum (Opti-MEM I reduced serum media, no phenol red, Gibco, #11058021) was used for culturing cells overnight for NanoBRET readout experiments.
HEK293 cells were then cultivated appropriately prior to assay. The medium from cell flask was removed via aspiration, washed 1× with PBS followed by aspiration, trypsinized, and cells were allowed to dissociate from the flask. Trypsin is neutralized using growth medium and cells were pelleted via centrifugation at 200×g for 5 minutes. The medium was aspirated and the cells were resuspended into a single cell suspension using Opti-MEM I supplemented with 10% FBS. The cell density was adjusted to 2×10^5/mL in Opti-MEM I supplemented with 10% FBS in a sterile, conical tube. The cells were transfected and aliquoted directly in a 96-well plate for the NanoBRET assay the next day, and therefore, the cells were cultured overnight in Opti-MEM. The cells were also transfected in bulk and dispensed into a 96-well plate to allow cells to adhere to the plate overnight, thereby enabling washout studies.
The lipid:DNA complexes were then prepared as follows: A 10 μg/mL solution of DNA was prepared in Opti-MEM without serum. This solution contains the following ratios of carrier DNA and DNA encoding NanoLuc fused to the biological target. Serial dilution steps may be warranted to accurately dilute the NanoLuc fusion DNA. Added, in order, were the following reagents to a sterile polystyrene test tube: 1 mL of Opti-MEM without phenol red; 9.0 μg/mL of carrier DNA; 1.0 μg/mL of NanoLuc fusion DNA (for some targets, the amount is less). The reagents were mixed thoroughly.
[…] was added into each mL of DNA mixture to form lipid:DNA complex. […] It was mixed by pipetting up and down 5-10 times and incubated at room temperature for 20 minutes to allow complexes to form. 1 part (e.g. 1 mL) of lipid:DNA complex was mixed with 20 parts (e.g. 20 mL) of HEK293 cells in suspension at 2×10^5/mL and mixed gently by pipetting up and down 5 times in a sterile, conical tube. Larger or smaller bulk transfections were scaled accordingly, using this ratio. 100 μL cells+lipid:DNA complex was dispensed into a sterile, tissue-culture treated 96-well plate (20,000 cells/well), and incubated at least 16 hours to allow expression. The cells were incubated in a 37° C.+5% CO2 incubator for >16 hrs. A serially diluted inhibitor (i.e. ARCS) or test compound was prepared at 100× final concentration in 100% DMSO. The serially diluted inhibitor stock was prepared in PCR plates. 1 μL per well of 100× serially diluted inhibitor/test compound was added to the cells in 96-well plates that have been transiently transfected overnight and mixed by tapping the plate by hand. The plate was incubated at 37° C.+5% CO2 incubator overnight. A 1× solution of substrate mix (500× stock) and appropriate concentration of tracer was prepared in Opti-Mem. The cells were washed by setting a plate washer to the 96 well plate 5× in PBS pH 7.4 by adding 200 μL PBS each time. The cells were then incubated at 37° C. for 2 hours. 100 μL of the 1× Substrate-Tracer solution was added and the 96 well plate was gently tapped to mix. The plate on plate reader is read every hour for the next 6 hours.

Row | SMILES | Binding (Percent inhibition)
1 | C#CCCC(=O)Nc1ccc(-c2nc(N3CCOCC3)c3cc(CN4CCN(C(=O)CNC(=O)C=C)CC4)cn3n2)cc1 [Compound 1-215] | + (+ <20%)
2 | C=CC(=O)N1CCC[C@@H]1C(=O)N1CCN(Cc2cc3c(N4CCOCC4)nc(-c4cnc(NC(=O)OC)cc4C(F)(F)F)nn3c2)CC1 [Compound 1-308] | ++++ (++++ >80%)
3 | C=CC(=O)N1CCC[C@H]1C(=O)N1CCN(Cc2cc3c(N4CCOCC4)nc(-c4cnc(NC(=O)OC)cc4C(F)(F)F)nn3c2)CC1 [Compound 1-309] | ++++ (++++ >80%)
4 | COC(=O)Nc1cc(C(F)(F)F)c(-c2nc(N3CCOCC3)c3cc(CN4CCN(C(=O)CNC(=O)/C=C/CN5CC6(COC6)C5)CC4)cn3n2)cn1 [Compound 1-213] | + (+ <20%)
5 | C=CC(=O)N[C@@H](C)C(=O)N1CCN(Cc2cc3c(N4CCOCC4)nc(-c4cnc(NC(=O)OC)cc4C(F)(F)F)nn3c2)CC1 [Compound 1-315] | ++++ (++++ >80%)
6 | C=C(C)C(=O)NCC(=O)N1CCN(Cc2cc3c(N4CCOCC4)nc(-c4cnc(NC(=O)OC)cc4C(F)(F)F)nn3c2)CC1 [Compound 1-201] | ++++ (++++ >80%)
7 | COC(=O)Nc1cc(C(F)(F)F)c(-c2nc(N3CCOCC3)c3cc(CN4CCN(C(=O)CNC(=O)/C=C/CN5CCCCC5)CC4)cn3n2)cn1 [Compound 1-217] | ++ (++ 20-50%)
8 | C=C(OC)C(=O)NCC(=O)N1CCN(Cc2cc3c(N4CCOCC4)nc(-c4cnc(NC(=O)OC)cc4C(F)(F)F)nn3c2)CC1 [Compound 1-314] | ++++ (++++ >80%)
9 | C=CC(=O)N[C@H](C)C(=O)N1CCN(Cc2cc3c(N4CCOCC4)nc(-c4cnc(NC(=O)OC)cc4C(F)(F)F)nn3c2)CC1 [Compound 1-313] | ++++ (++++ >80%)
10 | COC(=O)Nc1cc(C(F)(F)F)c(-c2nc(N3CCOCC3)c3cc(CN4CCN(C(=O)CNC(C)=O)CC4)cn3n2)cn1 [Compound 1-214] | ++++ (++++ >80%)
11 | C=C(F)C(=O)NCC(=O)N1CCN(Cc2cc3c(N4CCOCC4)nc(-c4cnc(NC(=O)OC)cc4C(F)(F)F)nn3c2)CC1 [Compound 1-212] | ++++ (++++ >80%)
12 | C=CC(=O)N(C)c1cccc(C(=O)N2CCN(Cc3cc4c(N5CCOCC5)nc(-c5cnc(NC(=O)OC)cc5C(F)(F)F)nn4c3)CC2)c1 [Compound 1-312] | ++ (++ 20-50%)
13 | C=CC(=O)Nc1cccc(C(=O)N2CCN(Cc3cc4c(N5CCOCC5)nc(-c5cnc(NC(=O)OC)cc5C(F)(F)F)nn4c3)CC2)c1 [Compound 1-306] | ++ (++ 20-50%)
14 | COC(=O)Nc1cc(C(F)(F)F)c(-c2nc(N3CCOCC3)c3cc(CN4CCN(C(=O)CNC(=O)/C=C/CN5CC(F)(F)C5)CC4)cn3n2)cn1 [Compound 1-204] | ++++ (++++ >80%)
15 | COC(=O)Nc1cc(C(F)(F)F)c(-c2nc(N3CCOCC3)c3cc(CN4CCN(C(=O)CNC(=O)/C=C/CN5CCN(C)CC5)CC4)cn3n2)cn1 [Compound 1-203] | ++ (++ 20-50%)
16 | C=CC(=O)NCC(=O)N1CC2(CN(Cc3cc4c(N5CCOCC5)nc(-c5cnc(NC(=O)OC)cc5C(F)(F)F)nn4c3)C2)C1 [Compound 1-223] | ++ (++ 20-50%)
17 | COC(=O)Nc1cc(C(F)(F)F)c(-c2nc(N3CCOCC3)c3cc(CN4CCN(C(=O)CNC(=O)/C=C/CN5CCOCC5)CC4)cn3n2)cn1 [Compound 1-202] | ++++ (++++ >80%)
18 | COC(=O)Nc1cc(C(F)(F)F)c(-c2nc(N3CCOCC3)c3cc(CN4CCN(C(=O)CNC(=O)/C=C/CF)CC4)cn3n2)cn1 [Compound 1-206] | + (+ <20%)
19 | C=CC(=O)N1CCC(C(=O)N2CCN(Cc3cc4c(N5CCOCC5)nc(-c5cnc(NC(=O)OC)cc5C(F)(F)F)nn4c3)CC2)CC1 [Compound 1-304] | ++++ (++++ >80%)
